According to patent US12697319B2, “Methods for inhibiting the progression of neurodegenerative diseases” (BioJiva LLC, priority 2021, dated 2026):
Like-named read-outs stand apart in the source and are kept apart here.

Assays:
[1] = for Concentration of D2-AA in the RBCs, high: highest of cohort; for Concentration of D2-AA in the RBCs, low: lowest of cohort
Experimental: In this example, children suffering from INAD were treated with a daily dose of 3.9 grams of D2-LA ethyl ester followed by 2.9 grams of D2-LA ethyl ester. Given the age and weight of these children, such is assumed to be substantially equivalent to a loading dose of from about 7 and about 12 grams per day for an adult patient for an adult patient and a maintenance dose which is less than the loading dose again for an adult patient.
This example also determines the concentration of D2-AA in RBCs. Specifically, a cohort of 14 children was provided with a daily dose of 3.9 grams of D2-LA ethyl ester for 1 month followed by 2.9 grams of D2-LA ethyl ester for the remaining six-month period. Blood samples were taken at 3 months for all but 1 child and at 6 months for all children. The concentration of D2-AA in RBCs was measured.

[2] = Concentration of D2-LA and D2-AA in RBCs of the same single patient (Example 1); conditions: extrapolated from the 3 and 6 month values
Description: This example determines the relative concentration of D2-AA in the CSF and in RBCs in order to determine a correlation between these two concentrations. Specifically, a patient was continuously provided with a daily dose of 9 grams of D2-LA ethyl ester (which is 8.64 grams of active discounting for impurities and removal of the ethyl ester) over about a six-month period. […] In all cases, the D2-AA was obtained by deacylation of the ethyl ester of linoleic acid in the gastrointestinal tract followed by conversion of D2-LA in vivo to D2-AA.

patients with ALS = experiment: ALSFRS-R functional decline in cohort of 3 ALS patients on primer plus maintenance dosing of D2-LA ethyl ester (Example 3); assay type: in vivo, human; conditions: about 9 grams daily for at least 30 days then 5 grams, natural history 21
Experimental: As set forth in the examples below, the rate of functional decline is predicated on measuring an individual's, or a cohort's, average for the natural history of disease progression. Next, the individual or cohort average for the functional decline is determined at a period of time such as at 3, 6 or 12 months after initiation of therapy. The rate of decline based on the average of the natural history of the cohort is set as the denominator. The numerator is set as the delta between the rate of the natural history of disease progression and the rate of functional decline after a set period of treatment per this invention. The resulting fraction is the multiplied by 100 to give a percent change. The following exemplifies this analysis. […]
The functionality of each of the patients was evaluated periodically using the ALSFRS-R protocol. […] Before initiation of therapy, the natural history of each patient in the cohort was determined and an average annual rate of functional decline was measured at 21.
The annualized progression of the disease, as measured by an average annual rate of functional decline for all three patients starting at the time that dosing began and terminating at the end of the dosing regimen and then annualized as described above, was measured as 2.1. […]

murine fibroblasts = conditions: fold vs D2-AA; erastin-treated murine fibroblasts
Experimental: In this example, two different pools of cells were each seeded in 48-well plates and treated with 50 micromolar of erastin.
Afterwards, cell viability was measured by plate dilution assay to distinguish between cells that are alive and those that are dead on a Petri dish.

SMILES: [2H]C([2H])(/C=C\C/C=C\C/C=C\CCCC(=O)O)/C=C\CCCCC [D2-AA, 13,13-D2-Arachidonic Acid]
- Concentration of D2-AA in the RBCs, high ([1]; 3 months): 16.8%
- Concentration of D2-AA in the RBCs, low ([1]; 3 months): 6.8%
- Concentration of D2-AA in the RBCs, high ([1]; 6 months): 26.1%
- Concentration of D2-AA in the RBCs, low ([1]; 6 months): 12.0%
- Amount of D2-AA at 1 month in RBCs (estimated by linear extrapolation, FIG. 1) [2]: about 3%

SMILES: [2H]C([2H])(/C=C\CCCCC)/C=C\CCCCCCCC(=O)OCC [D2-LA ethyl ester, 11,11-D2-linoleic acid ethyl ester]
- Average annual rate of functional decline during dosing (ALSFRS-R), annualized (patients with ALS): 2.1

SMILES: [2H]C([2H])(/C=C\CCCCC)/C=C\C([2H])([2H])/C=C\C([2H])([2H])/C=C\CCCC(=O)O
- Level of protection against LPO induced cell death relative to 13,13-D2-arachidonic acid (murine fibroblasts): approximately twice
